Assays:
GFP expression = assay: Exemplary SIMM circuit of FIG. 2B, GFP output (FIG. 2C); type: cell-based; conditions: inducer added to the exemplary SIMM circuit of FIG. 2B
Description: FIGS. 2A-2C depict an exemplary switch-module (SIMM) for use in the converters described herein and data from the exemplary switch module (SIMM). FIG. 2A depicts an exemplary SIMM comprising a first inducible promoter sequence (P inducible,1) linked to a forward recombinase recognition site (R1RS), an inverted sequence of a second inducible promoter (P inducible,2), a recombinase sequence (Recombinase 1), and a reverse recombinase recognition site (R1RS). Further upstream of the first inducible promoter sequence of the SIMM is an inverted sequence of a constitutively active inducer agent that is specific for the second inducible promoter. Downstream of the reverse recombinase recognition site of the SIMM is an inverted sequence of a third inducible promoter (P inducible,3) and a sequence encoding a dominant negative version of the inducer agent specific for the second inducible promoter. A further component of the exemplary circuit is a sequence of the second inducible promoter operably linked to an output product. In the absence of any inducing agent, constitutive expression of the inducer agent that is specific for the second inducible promoter drives expression from the inducible promoter operably linked to an output product. […]

signaling complex = conditions: read-out: Affinity (Kd) for signaling complex; cited from earlier work
Hin recombinase = Hin recombinase (Salmonella typhimurium, UniProt P03013); conditions: relative to hixL and hixR; cited from earlier work
Hin = Hin (Salmonella typhimurium, UniProt P03013); conditions: relative to wild type sites hixL and hixR; cited from earlier work
Sequence of Hin (P03013 whole entry): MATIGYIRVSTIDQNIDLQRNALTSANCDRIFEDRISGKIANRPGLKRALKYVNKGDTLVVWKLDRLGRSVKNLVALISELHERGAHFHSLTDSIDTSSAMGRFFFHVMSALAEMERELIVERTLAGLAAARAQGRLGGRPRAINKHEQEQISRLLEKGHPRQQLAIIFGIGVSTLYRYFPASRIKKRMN

Sequence of Hin recombinase (P03013 whole entry): as above

CC(C)S[C@@H]1O[C@H](CO)[C@H](O)[C@H](O)[C@H]1O [IPTG, isopropyl β-D-1-thiogalactopyranoside]
Effect on GFP expression of the circuit (GFP expression): restores the circuit to its initial state

Cc1c2c(c(O)c3c(O)cccc13)C(=O)[C@]1(O)C(=O)C(C(N)=O)=C(O)[C@@H](N(C)C)[C@@H]1C2 [anhydrous tetracycline, Anhydrotetracycline]
Effect on GFP expression of the circuit (GFP expression): inhibits GFP expression

Maltose-binding protein
Kd (signaling complex): 250 µM

hixC: composite 26 bp symmetrical hix site, binding site for Salmonella typhimurium Hin recombinase (DNA TTATCAAAAACCATGGTTTTTGATAA; chemistry not given here)
fold slower inversion rate than wild type sites hixL and hixR (Hin recombinase): 16 fold
binding affinity for Hin (Hin): higher binding affinity for Hin

From patent US9284562B2, “Biological circuit chemotactic converters” (Trustees of Boston University, priority 2009, dated 2016)
